Reference: patent US8143212B2 (Vicuron Pharmaceuticals Inc., priority 2002, dated 2012)
Converted amounts (≈) assume the structure as drawn. Like-named read-outs stand apart in the source and are kept apart here.

Assays:
S haemolyticus = test: MIC, microbiological activity (Table 3); assay type: cell-based; conditions: L 602 S haemolyticus clin. isolate; read-out: MIC
E faecalis = test: MIC, microbiological activity (Table 3); assay type: cell-based; conditions: read-out: MIC
E coli = test: MIC, microbiological activity (Table 3); assay type: cell-based
[1] = Phase II SSTI trial: safety (adverse events); assay type: in vivo, human
Experimental: Each patient who received at least one dose of study drug (ITT population) was evaluated for drug safety through monitoring of adverse events (AE), including abnormal clinical laboratory test results and vital signs. AE were rated by the investigator as to their severity (mild, moderate, severe, life-threatening), and by the relationship to the study drug (not related, unlikely related, possibly related, or probably related).

[2] = test system: Gram-positive isolates, including MRSA; assay type: cell-based; conditions: baseline isolates, MITT
[3] = Pharmacokinetics and renal excretion in healthy subjects, single 1000 mg IV; assay type: in vivo, human; conditions: for t1/2: healthy subjects, single 1000 mg IV
Experimental: Blood samples were drawn into heparinized tubes and centrifuged. Plasma was separated and stored frozen at −20° C. until time of assay. Plasma and urine samples were assayed for dalbavancin using validated LC/MS/MS methods. […] The peak concentration (Cmax) values were obtained directly from the observed data. The area under the plasma concentration-time curve (AUC) was calculated using the linear trapezoidal rule. Clearance (CL) was computed as dose/AUC. The elimination half life (t1/2) was estimated by linear regression of the log-linear portion of the log concentration versus time curve. Estimates of the volume of distribution (VZ) was calculated using the regression parameters, while the volume of distribution at steady state (VSS) was calculated from the area under the first moment curve (AUMC) multiplied by the dose and divided by AUC. The cumulative amount of dalbavancin excreted in urine was determined as the integrand of the urine excretion rate (AURC). CLR, or renal clearance, was calculated as the ratio: CLR=AURC/AUC.

in vitro = assay type: cell-based, S. aureus; conditions: mouse, serum
From the text: This degree of binding was considered in subsequent pharmacodynamic analyses. The degree of binding in human serum would be estimated to be 96%.

bacteria = test: Minimum bactericidal concentration; assay type: cell-based; conditions: in plasma
From the text: The amount of dalbavancin administered may be any of the dosages disclosed herein.

[4] = human, in vivo
[5] = in vivo
Experimental: Safety was evaluated by the collection and analysis of data on adverse events (AEs), clinical laboratory tests, physical examinations, vital signs, and ECGs.

[6] = human, in vivo; remark: listed apart in the source
Experimental: (§1) The peak concentrations (Cmax) were obtained directly from the observed data. The area under the plasma concentration-time curve (AUC) were calculated using the linear trapezoidal rule.
(§2) Clinical Study VER001-13 examined subjects with mild and moderate renal impairment and Clinical Study VER001-1 examined subjects with severe renal impairment and subjects with end-stage renal disease (ESRD). Matched control subjects were enrolled in all studies. […] Subjects with ESRD were dependent on dialysis through the course of the study (3 times weekly).

[7] = human, in vivo; remark: listed apart in the source
From the text: (§3) The study enrolled otherwise healthy subjects with mild, moderate, or severe hepatic impairment (Child-Pugh scores 5 to 6, 7 to 9, and 10 to 15, respectively) and matched control subjects with normal hepatic function.

human α-glycoprotein = conditions: pH 7.4
Experimental: Integrated heat effects, after correction for heats of dilution, were analyzed by non-linear regression using a simple single-site binding model with the standard Microcal ORIGIN software package. Raw data (μcal/sec) for each injection were integrated to give the total heat effect per addition, then divided by amount of injectant to give kcal/mole of injectant. The same integration was applied for control dilution effects, and this was subtracted from the actual titration data. This provided a differential of the binding curve in which the extent of binding is proportional to the total heat liberated (or absorbed). This was then analyzed by non-linear regression methods in terms of various standard binding models. The simplest model assumes simple non-competitive binding equilibrium, and gives three parameters:

in vivo = conditions: Swiss ICR, mouse, plasma, ip
Experimental: (§4) Neutropenia in this and all other studies was produced by injections of cyclophosphamide, 150 mg/kg 4 days prior to study, 100 mg/kg 1 day prior to study and 100 mg/kg every 48 h after start of infection until end of study. Neutrophil counts remained less than 100/mm^3 for the duration of study. Doses of 2.5, 5, 10, 20; 40, and 80 mg/kg were studied. Drug was administered by intraperitoneal injection of 0.2 ml volume. Blood was removed from groups of three mice by retroorbital aspiration into heparinized capillary tubes at 0.5, 1, 2, 4, 6, 24, 48, 72, and 96 hours after dosing. […] AUC was calculated by the trapezoidal rule from mean concentrations.

clinical = conditions: human, in vivo; for AUC(0-inf): AUC0-inf; for clearance: CL; for Vd: Vss
Experimental: as §1, §2

[8] = Plasma pharmacokinetics in thigh-infected neutropenic mice; conditions: intraperitoneal
Experimental: as §4

[9] = Pharmacokinetics and safety in subjects with hepatic impairment (VER001-12); conditions: human, in vivo, intravenous, 1000 mg Day 1 and 500 mg Day 8, Mean (±SD)
From the text: as §3

## CN[C@H]1C(=O)N[C@@H]2Cc3ccc(cc3)Oc3cc4cc(c3O[C@@H]3O[C@H](C(=O)O)[C@@H](O)[C@H](O)[C@H]3NC(=O)CCCCCCCCC(C)C)Oc3ccc(cc3Cl)[C@@H](O)[C@@H]3NC(=O)[C@H](NC(=O)[C@@H]4NC(=O)[C@@H](NC2=O)c2cc(cc(O)c2Cl)Oc2cc1ccc2O)c1ccc(O)c(c1)-c1c(O[C@H]2O[C@H](CO)[C@@H](O)[C@H](O)[C@@H]2O)cc(O)cc1[C@@H](C(=O)NCCCN(C)C)NC3=O [Dalbavancin]
S haemolyticus
  MIC: > 32 µg/mL
E faecalis; L 149 E faecalis
  MIC: 0.06 µg/mL (≈ 0.033 µM)
E faecalis; L 562 E faecalis clin. isolate
  MIC: > 32 µg/mL
E coli; G 16440 E coli iperperm
  MIC: 8 µg/mL (≈ 4.4 µM)
E coli; L 47 E coli SKF12140, read-out: MIC
  MIC: > 32 µg/mL
[1]; Single-dose dalbavancin (N = 20)
  ≧1 AE possibly/probably related to treatment: 55%
[1]; Two-dose dalbavancin (N = 21)
  ≧1 AE possibly/probably related to treatment: 48%
[1]; human, in vivo
  AE leading to discontinuation of study medication: 0%
[1]; in vivo
  clinically significant hepatotoxicity or nephrotoxicity: no evidence
  premature discontinuation of treatment due to an AE: No dalbavancin-treated patient discontinued treatment prematurely
  serious adverse events related to study drug treatment: no serious adverse events
[2]; All S. aureus, Single dose Dalbavancin (1100 mg) group
  Dalbavancin MIC: (0.12)
[2]; All S. aureus, Standard of Care Regimens group
  Dalbavancin MIC: (0.016-0.25)
[2]; All S. aureus, Two-dose Dalbavancin (1000/500 mg) group
  Dalbavancin MIC: (0.12)
[2]; Group B streptococcus, Standard of Care Regimens group
  Dalbavancin MIC: (0.016)
[2]; Group B streptococcus, Two-dose Dalbavancin (1000/500 mg) group
  Dalbavancin MIC: (0.016)
[2]; Miscellaneous Streptococcus and nontypeable strains, Single dose Dalbavancin (1100 mg) group
  Dalbavancin MIC: (0.016)
[2]; Miscellaneous Streptococcus and nontypeable strains, Standard of Care Regimens group
  Dalbavancin MIC: (0.016)
[2]; Miscellaneous Streptococcus and nontypeable strains, Two-dose Dalbavancin (1000/500 mg) group
  Dalbavancin MIC: (0.016)
[2]; Streptococcus pyogenes, Standard of Care Regimens group
  Dalbavancin MIC: (0.016)
[3]; Max
  t1/2: 11.8 days
[3]; Min
  t1/2: 9.46 days
[3]; both, human, in vivo
  peak concentration: ~165 µM
In vitro
  fraction unbound: 0.004
bacteria
  MBC: ~4 µg/mL (≈ 2.2 µM)
[4]
  plasma concentration, all patients: greater than 20 mg/l
[5]; human
  average difference of effect on QTc values: 7 ms
  patients with AEs that led to discontinuation of study drug: 3%
[5]
  SAE considered to be related to study drug: no SAE
[6]
  tolerability: well tolerated
[6]; 1120 mg
  Cmax: 325 µg/mL
[7]
  tolerability: well tolerated
Human α-glycoprotein; 1 μM
  Calculated percent Binding: 73.0%
Human α-glycoprotein; 10 μM
  Calculated percent Binding: 68.2%
Human α-glycoprotein; 100 μM
  Calculated percent Binding: 26.2%
Human α-glycoprotein; 165 μM
  Calculated percent Binding: 16.9%
Human α-glycoprotein; 250 μM
  Calculated percent Binding: 11.4%
Human α-glycoprotein; 500 μM
  Calculated percent Binding: 5.9%
In vivo
  half-life: 0.317 to 0.546 days
clinical; 500 mg, AUC
  AUC: 24400 µg·h/mL
clinical; 500 mg, AUC0-day7
  AUC: 6080 µg·h/mL
clinical; 500 mg, AUC0-day14
  AUC: 10400 µg·h/mL
clinical; 500 mg
  AUC(0-inf): 24100 µg·h/mL
  clearance: 0.37 mL/min
  Cmax: 137 µg/mL
  Vd: 13.2 L
clinical; 500 mg, AUC7
  AUC: 6860 µg·h/mL
clinical; 500 mg, AUC14
  AUC: 11000 µg·h/mL
clinical; 1000 mg, AUC
  AUC: 24500 µg·h/mL
clinical; 1000 mg, AUC0-day7
  AUC: 9710 µg·h/mL
clinical; 1000 mg, AUC0-day14
  AUC: 15300 µg·h/mL
clinical; 1000 mg
  AUC(0-inf): 27000 µg·h/mL
  clearance: 0.627 mL/min
  Cmax: 340 µg/mL
  Vd: 16.5 L
clinical; 1000 mg, AUC7
  AUC: 13400 µg·h/mL
clinical; 1000 mg, AUC 14
  AUC: ~22000 µg·h/mL
clinical; 1000 mg, AUC14
  AUC: 17700 µg·h/mL
clinical; 1000 mg, AUC42
  AUC: 23100 µg·h/mL
clinical; 1120 mg, AUC
  AUC: 25800 µg·h/mL
clinical; 1120 mg, AUC0-day7
  AUC: 13600 µg·h/mL
clinical; 1120 mg, AUC0-day14
  AUC: 20200 µg·h/mL
clinical; 1120 mg
  AUC(0-inf): 25800 µg·h/mL
  clearance: 0.728 mL/min
  Cmax: 325 µg/mL
  Vd: 8.49 L
clinical; 1120 mg, AUC7
  AUC: 13600 µg·h/mL
clinical; 1120 mg, AUC14
  AUC: 20200 µg·h/mL
[8]
  time of peak levels: 4 to 6 h
[9]; t1/2, Mild Hepatic Impairment (N = 6)
  half-life: 13.5 days
[9]; t1/2, Moderate Hepatic Impairment (N = 6)
  half-life: 13.3 days
[9]; t1/2, Normal Hepatic Function (N = 9)
  half-life: 13.4 days
[9]; t1/2, Severe Hepatic Impairment (N = 5)
  half-life: 13.4 days
